Data taken from patent publication US20110105509A1 (Wyeth, LLC, priority 2009, published 2011).

The molecules below were run against T1, CRTH2 (Homo sapiens, UniProt Q9Y5Y4) (assay: FRET based competitive immunoassay (cAMP) in CRTH2 expressing CHO cells). Settings: CRTH2 expressing CHO cells incubated with forskolin and PGD2; Eu3+ cryptate-labeled anti-cAMP and d2-labeled cAMP.
T1 construct: expressed in transfected cells; host or cells: CHO cells
T1 sequence (Q9Y5Y4 1-395): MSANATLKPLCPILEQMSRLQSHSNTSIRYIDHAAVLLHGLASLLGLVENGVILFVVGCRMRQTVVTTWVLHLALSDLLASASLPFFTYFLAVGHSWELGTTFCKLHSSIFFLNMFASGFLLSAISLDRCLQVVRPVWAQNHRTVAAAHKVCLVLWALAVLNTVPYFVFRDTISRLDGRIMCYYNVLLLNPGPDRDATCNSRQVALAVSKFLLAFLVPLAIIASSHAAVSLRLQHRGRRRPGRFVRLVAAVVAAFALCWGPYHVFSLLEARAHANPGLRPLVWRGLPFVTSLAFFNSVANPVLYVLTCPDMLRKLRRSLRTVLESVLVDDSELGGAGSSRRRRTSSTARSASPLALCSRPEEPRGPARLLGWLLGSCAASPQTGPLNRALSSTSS
Format: cell-based
Method: FRET Assay: To evaluate potency compounds were tested in a FRET based competitive immunoassay in which CRTH2 expressing CHO cells were incubated in the presence of forskolin and PGD2 along with Eu3+ cryptate-labeled anti-cAMP and d2-labeled cAMP.
With `Cc1c(-c2ccc(=O)n(Cc3ccccc3)n2)c2cc(Cl)cc(Cl)c2n1CC(=O)O` [Example 234, 2-(3-(1-benzyl-6-oxo-1,6-dihydropyridazin-3-yl)-5,7-dichloro-2-methyl-1H-indol-1-yl)acetic acid] the IC50 was 1000 nM. Work on `Cc1c(-c2ccc(=O)n(Cc3ccc(S(C)(=O)=O)cc3)n2)c2cc(Cl)ccc2n1CC(=O)O` [Example 66, 2-(5-chloro-2-methyl-3-(1-(4-(methylsulfonyl)benzyl)-6-oxo-1,6-dihydropyridazin-3-yl)-1H-indol-1-yl)acetic acid] yielded an IC50 of 143 nM. `Cc1c(-c2nn(C)c(=O)c3ccccc23)c2ccccc2n1CC(=O)O` [Example 174, 2-(2-methyl-3-(3-methyl-4-oxo-3,4-dihydrophthalazin-1-yl)-1H-indol-1-yl)-acetic acid] showed an IC50 of 980 nM. For `Cc1c(Cc2ccc(=O)n(CCCC(F)(F)F)c2)c2cc(F)ccc2n1CC(=O)O` [Example 54, 2-(5-Fluoro-2-methyl-3-((6-oxo-1-(4,4,4-trifluorobutyl)-1,6-dihydropyridin-3-yl)methyl)-1H-indol-1-yl)acetic acid], the IC50 was 329 nM. Molecule `Cc1c(-c2ccc(=O)n(Cc3ccccc3)n2)c2cc(F)cc(F)c2n1CC(=O)O` [Example 233, 2-(3-(1-benzyl-6-oxo-1,6-dihydropyridazin-3-yl)-5,7-difluoro-2-methyl-1H-indol-1-yl)acetic acid] has an IC50 of 147 nM. In the case of `Cc1cc(Cn2nc(-c3c(C)n(CC(=O)O)c4ccc(F)cc34)c3ccccc3c2=O)c2ccccc2n1` [Example 119, 2-(5-fluoro-2-methyl-3-(3-((2-methylquinolin-4-yl)methyl)-4-oxo-3,4-dihydro-phthalazin-1-yl)-1H-indol-1-yl)acetic acid], the IC50 is reported as 17 nM. In the case of `Cc1c(-c2ccc(=O)n(Cc3cccc(F)c3F)n2)c2ccccc2n1CC(=O)O` [Example 188, 2-(3-(1-(2,3-difluorobenzyl)-6-oxo-1,6-dihydropyridazin-3-yl)-2-methyl-1H-indol-1-yl)acetic acid], the IC50 is reported as 227 nM. `Cc1c(Cc2ccc(=O)n(CC(C)(C)C)n2)c2cc(F)ccc2n1CC(=O)O` [Example 343, (3-{[1-(2,2-dimethylpropyl)-6-oxo-1,6-dihydropyridazin-3-yl]methyl}-5-fluoro-2-methyl-1H-indol-1-yl)acetic acid] gave an IC50 of 142 nM. With `Cc1c(-c2nn(CCOc3ccc(Cl)cc3)c(=O)c3ccccc23)c2cc(F)ccc2n1CC(=O)O` [Example 210, 2-(3-(3-(2-(4-chlorophenoxy)ethyl)-4-oxo-3,4-dihydrophthalazin-1-yl)-5-fluoro-2-methyl-1H-indol-1-yl)acetic acid] the IC50 was 2 nM. `Cc1c(-c2nn(Cc3ccccc3)c(=O)c3ccccc23)c2cc(F)cc(Cl)c2n1CC(=O)O` [Example 243, 2-(3-(3-benzyl-4-oxo-3,4-dihydrophthalazin-1-yl)-7-chloro-5-fluoro-2-methyl-1H-indol-1-yl)acetic acid] was tested, and the IC50 was 33 nM. In the case of `Cc1c(Cc2ccc(=O)n(Cc3ccc(F)c(F)c3)c2)c2cc(F)ccc2n1CC(=O)O` [Example 33, 2-(3-((1-(3,4-difluorobenzyl)-6-oxo-1,6-dihydropyridin-3-yl)methyl)-5-fluoro-2-methyl-1H-indol-1-yl)acetic acid], the IC50 is reported as 11 nM. With `Cc1c(-c2ccc(=O)n(Cc3ccc(F)cc3)n2)c2cc(Cl)ccc2n1CC(=O)O` [Example 139, 2-(5-Chloro-3-(1-(4-fluorobenzyl)-6-oxo-1,6-dihydropyridazin-3-yl)-2-methyl-1H-indol-1-yl)acetic acid] the IC50 was 24 nM. In the case of `Cc1c(-c2nn(Cc3ccccc3C(F)(F)F)c(=O)c3ccccc23)c2cc(Cl)ccc2n1CC(=O)O` [Example 199, 2-(5-chloro-2-methyl-3-(4-oxo-3-(2-(trifluoromethyl)benzyl)-3,4-dihydrophthalazin-1-yl)-1H-indol-1-yl)acetic acid], the IC50 is reported as 19 nM. `COc1ccc2c(c1)c(-c1ccc(=O)n(Cc3ccccc3)n1)c(C)n2CC(=O)O` [Example 18, 2-(3-(1-Benzyl-6-oxo-1,6-dihydropyridazin-3-yl)-5-methoxy-2-methyl-1H-indol-1-yl)acetic acid] was tested, and the IC50 was 192 nM. `Cc1c(Cc2ccc(=O)n(Cc3ccccc3F)n2)c2ccccc2n1CC(=O)O` [Example 74, 2-(3-((1-(2-fluorobenzyl)-6-oxo-1,6-dihydropyridazin-3-yl)methyl)-2-methyl-1H-indol-1-yl)acetic acid] showed an IC50 of 2 nM. `Cc1c(-c2nn(Cc3ccc(Cl)cc3Cl)c(=O)c3ccccc23)c2cc(Cl)ccc2n1CC(=O)O` [Example 331, {5-chloro-3-[3-(2,4-dichlorobenzyl)-4-oxo-3,4-dihydrophthalazin-1-yl]-2-methyl-1H-indol-1-yl}acetic acid] was tested, and the IC50 was 3 nM. In the case of `Cc1c(-c2ccc(=O)n(Cc3nc4ccccc4s3)n2)c2cc(F)ccc2n1CC(=O)O` [Example 153, 2-(3-(1-(benzo[d]thiazol-2-ylmethyl)-6-oxo-1,6-dihydropyridazin-3-yl)-5-fluoro-2-methyl-1H-indol-1-yl)acetic acid], the IC50 is reported as 25 nM. Work on `Cc1c(-c2ccc(=O)n(Cc3ccc(C(F)(F)F)cc3)n2)c2cc(Cl)ccc2n1CC(=O)O` [Example 213, 2-(5-chloro-2-methyl-3-(6-oxo-1-(4-(trifluoromethyl)benzyl)-1,6-dihydropyridazin-3-yl)-1H-indol-1-yl)acetic acid] yielded an IC50 of 19 nM. Work on `Cc1c(-c2cn(C(C)C)c(=O)c3c2CCCC3)c2cc(F)ccc2n1CC(=O)O` [Example 91, 2-(5-fluoro-3-(2-isopropyl-1-oxo-1,2,5,6,7,8-hexahydroisoquinolin-4-yl)-2-methyl-1H-indol-1-yl)acetic acid] yielded an IC50 of 107 nM. `Cc1c(-c2nn(Cc3cccc(F)c3F)c(=O)c3ccccc23)c2cc(Cl)ccc2n1CC(=O)O` [Example 97, 2-(5-chloro-3-(3-(2,3-difluorobenzyl)-4-oxo-3,4-dihydrophthalazin-1-yl)-2-methyl-1H-indol-1-yl)acetic acid] showed an IC50 of 7 nM. `Cc1c(-c2nn(Cc3ccc4ccccc4n3)c(=O)c3ccccc23)c2cc(Cl)ccc2n1CC(=O)O` [Example 103, 2-(5-chloro-2-methyl-3-(4-oxo-3-(quinolin-2-ylmethyl)-3,4-dihydro-phthalazin-1-yl)-1H-indol-1-yl)acetic acid] was tested, and the IC50 was 11 nM. `Cc1c(-c2nn(Cc3nc4cc(F)ccc4s3)c(=O)c3ccccc23)c2cc(Cl)ccc2n1CC(=O)O` [Example 99, 2-(5-chloro-3-(3-((5-fluorobenzo[d]thiazol-2-yl)methyl)-4-oxo-3,4-dihydrophthalazin-1-yl)-2-methyl-1H-indol-1-yl)acetic acid] showed an IC50 of 10 nM. In the case of `Cc1c(-c2nn(Cc3nc4cc(Cl)ccc4s3)c(=O)c3ccccc23)c2cc(Cl)ccc2n1CC(=O)O` [Example 209, 2-(5-chloro-3-(3-((5-chlorobenzo[d]thiazol-2-yl)methyl)-4-oxo-3,4-dihydro-phthalazin-1-yl)-2-methyl-1H-indol-1-yl)acetic acid], the IC50 is reported as 14 nM. Work on `Cc1ccc(Cn2nc(-c3c(C)n(CC(=O)O)c4ccc(Cl)cc34)ccc2=O)cc1` [Example 146, 2-(5-chloro-2-methyl-3-(1-(4-methylbenzyl)-6-oxo-1,6-dihydropyridazin-3-yl)-1H-indol-1-yl)acetic acid] yielded an IC50 of 74 nM. `Cc1c(-c2ccc(=O)n(Cc3cccc(F)c3F)c2)c2cc(F)ccc2n1[C@H](C)C(=O)O` [Example 306b, (R)-2-(3-(1-(2,3-difluorobenzyl)-6-oxo-1,6-dihydropyridin-3-yl)-5-fluoro-2-methyl-1H-indol-1-yl)propanoic acid] gave an IC50 greater than 2000 nM. Molecule `Cc1c(-c2ccc(=O)n(Cc3ccccc3)n2)c2cc(F)cc(S(C)(=O)=O)c2n1CC(=O)O` [Example 236, 2-(3-(1-benzyl-6-oxo-1,6-dihydropyridazin-3-yl)-5-fluoro-2-methyl-7-(methyl-sulfonyl)-1H-indol-1-yl)acetic acid] has an IC50 greater than 1000 nM. `Cc1c(-c2ccc(=O)n(Cc3ccccc3F)c2)c2ccccc2n1CC(=O)O` [Example 282, 2-(3-(1-(2-fluorobenzyl)-6-oxo-1,6-dihydropyridin-3-yl)-2-methyl-1H-indol-1-yl)acetic acid] showed an IC50 of 11 nM. With `Cc1c(-c2nn(-c3ccccc3)c(=O)c3ccccc23)c2cc(F)ccc2n1CC(=O)O` [Example 205, 2-(5-fluoro-2-methyl-3-(4-oxo-3-phenyl-3,4-dihydrophthalazin-1-yl)-1H-indol-1-yl)-acetic acid] the IC50 was 60 nM. Work on `Cc1c(-c2nn(Cc3nc4cc(F)ccc4s3)c(=O)c3ccccc23)c2cc(F)ccc2n1CC(=O)O` [Example 114, 2-(5-fluoro-3-(3-((5-fluorobenzo[d]thiazol-2-yl)methyl)-4-oxo-3,4-dihydro-phthalazin-1-yl)-2-methyl-1H-indol-1-yl)acetic acid] yielded an IC50 of 13 nM. Molecule `Cc1c(-c2nn(Cc3ccccc3)c(=O)c3ccccc23)c2cc(S(C)(=O)=O)ccc2n1CC(=O)O` [Example 215, 2-(3-(3-benzyl-4-oxo-3,4-dihydrophthalazin-1-yl)-2-methyl-5-(methylsulfonyl)-1H-indol-1-yl)acetic acid] has an IC50 of 27 nM. `Cc1c(Cc2ccc(=O)n(CC(F)(F)F)n2)c2cc(F)ccc2n1CC(=O)O` [Example 345, (5-fluoro-2-methyl-3-{[6-oxo-1-(2,2,2-trifluoroethyl)-1,6-dihydropyridazin-3-yl]-methyl}-1H-indol-1-yl)acetic acid] showed an IC50 of 31 nM. For `Cc1c(Cc2ccc(=O)n(Cc3cc(F)cc(F)c3)c2)c2cc(F)ccc2n1CC(=O)O` [Example 36, 2-(3-((1-(3,5-Difluorobenzyl)-6-oxo-1,6-dihydropyridin-3-yl)methyl)-5-fluoro-2-methyl-1H-indol-1-yl)acetic acid], the IC50 was 2 nM.
